The IC50 is the point on the concentration scale where inhibition reaches its midpoint. What is called GI50 is the concentration giving 50% growth inhibition.

A value given as a limit tells only on which side of the number the result lay.

One experiment has as its target T1, recombinant human DHODH (Homo sapiens, UniProt Q02127).
T1 construct: DHODH, 31-395 aa, Human, His tag, E. coli, ATGP1615; His tag; purchased ATGen Co. Ltd. ATGP1615; host or cells: E. coli
Kind of experiment: Enzyme reaction inhibition test (DHODH enzyme assay, DCIP quenching). The following applies: DCIP absorbance 600 nm, 50 minutes, read-out: Enzyme reaction inhibitory effect (IC50). In kind it is biochemical. Here is the method: The DHODH enzyme assay was carried out with reference to “Benjamin Bader, Wolfgang Knecht, Markus Fries, and Monika Loffler. Expression, Purification, and Characterization of Histidine-Tagged Rat and Human Flavoenzyme Dihydroorotate Dehydrogenase. Protein Expression and Purification, 1998, 13, 414-422.”
The DHODH activity was evaluated using an enzyme assay system that is coupled with an assay in which a blue coloring agent 2,6-dichlorophenol indophenol (DCIP, available from MP Biomedicals, LLC, MP150118) is quenched. Purified recombinant human DHODH (DHODH, 31-395 aa, Human, His tag, E. coli, ATGP1615) was purchased from ATGen Co. Ltd. The enzyme assay was carried out in a 384-well plate using a buffer solution containing 100 mmol/L Hepes (available from Dojindo Laboratories, 342-01375), 400 mmol/L NaCl (available from FUJIFILM Wako Pure Chemical Corporation, 191-01665), 10% Glycerol (available from FUJIFILM Wako Pure Chemical Corporation, 075-00616), 0.05% Triton X-100 (available from Sigma-Aldrich Co., LLC, T8787-100ML), 0.2 mmol/L Ubiquinone-10 (available from FUJIFILM Wako Pure Chemical Corporation, 216-00761), 0.1 mmol/L DHO (L-dihydroorotic acid, available from Sigma-Aldrich Co., LLC, D7128), 0.5% DMSO (dimethylsulfoxide, available from FUJIFILM Wako Pure Chemical Corporation, 047-29353), 0.175 μg/mL DHODH, and 0.12 mmol/L DCIP and having a pH adjusted to 8.0 by adding 5 mol/L potassium hydroxide (available from FUJIFILM Wako Pure Chemical Corporation, 168-21815). A test compound with a predetermined concentration was added using Biomek NX (available from Beckman Coulter Inc.), and the enzymatic reaction was started by adding the substrate. The enzyme activity was assessed by measuring the decrease in DCIP absorbance (600 nm) for 50 minutes using an EnVision plate-reading spectrophotometer (available from PerkinElmer, Inc.).
The enzyme reaction inhibition rate at each test compound concentration was determined, and the 50% enzyme reaction inhibition concentration [IC50 (nmol/L)] was calculated using XLfit. Enzyme reaction inhibition rate (%)=(amount of luminescence in test compound-added well)/(amount of luminescence in DMSO-added well)×100
The abbreviations in the table have the following meanings. • A: IC50 value<10 nmol/L • B: 10 nmol/L≤IC50 value<100 nmol/L • C: 100 nmol/L≤IC50 value

In experiment [1] the test system is human myeloid leukemia cell line HL60. The experiment is described as follows: Cell growth test (Cell Titer Glo). Format: cell-based. The note with it: HL-60, 72 h, HL60 cells, 3 days, read-out: Cell growth inhibitory effect (GI50). Here is the method:
The cell growth test was carried out using the human myeloid leukemia cell line HL60 (available from ATCC, CRL-240). As a culture medium of HL60 cells, RPMI 1640 (available from FUJIFILM Wako Pure Chemical Corporation, 189-02025) supplemented with 10% fetal bovine serum (available from Thermo Fisher Scientific, Inc., 10437-028), and 1% penicillin-streptomycin (10,000 U/mL, available from Thermo Fisher Scientific, Inc., 15140-122) was used. HL60 cells were seeded on a 384-well plate (available from Corning Inc., 4588) at a cell density of 1×10^3 cells/20 μL/well. After culturing overnight, 5 μL of the test compound having a predetermined concentration was added, and 3 days later, 25 μL of Cell Titer Glo (registered trademark) Luminescent Cell Viability Assay (available from Promega Corporation, G7573) was added, and then the amount of luminescence was measured using an EnVision plate reader (available from PerkinElmer, Inc.). Since the amount of luminescence is proportional to the intracellular concentration of adenosine triphosphate (ATP), the amount of luminescence was used as an indicator of the number of viable cells. The growth inhibitory concentration for each test compound concentration was calculated by the following expression.
The growth inhibition rate at each test compound concentration was determined, and the 50% growth inhibitory concentration [GI50 (nmol/L)] was calculated using XLfit. Growth inhibition rate (%)=(amount of luminescence in test compound-added well)/(amount of luminescence in DMSO-added well)×100
The abbreviations in the table have the following meanings. • A: GI50 value<100 nmol/L • B: 100 nmol/L≤GI50 value<1,000 nmol/L • C: 1,000 nmol/L≤GI50 value
Background: Cellular ATP, detected with luciferase, serves as a proxy for viable cell number.

Experiment [2] relates to human acute myeloid leukemia cell line HL60. The experiment is described as follows: In vivo drug efficacy test in cancer-bearing mouse model with subcutaneous transplantation of HL60. The following applies: NOD/scid mice, oral 10 to 30 mg/kg once daily for 10 days. Here is the method: (Drug Efficacy Test in Cancer-Bearing Mouse Model with Subcutaneous Transplantation of HL60)
The human acute myeloid leukemia cell line HL60 (available from JCRB) was suspended in a mixture of RPMI-1640 medium and Matrigel (available from Corning Inc.), and then subcutaneously transplanted into 6-week-old female NOD/scid mice (available from CLEA Japan, Inc.). After confirming that the average tumor volume exceeded 200 mm^3, the test compound was dissolved in a solvent (1 equivalent sodium hydroxide solution) and orally administered to mice at a dose of 10 to 30 mg/kg once daily for 10 days. As a negative control, a solvent-administered group to which a 10 to 12 mmol/L sodium hydroxide solution was administered was provided. The tumor diameter was measured over time and the tumor volume was calculated. The tumor volume was calculated by measuring the major axis and the minor axis of the tumor and using the following expression. Tumor volume (mm^3)=[major axis (mm)×minor axis (mm)×minor axis (mm)]/2
T/C (%) was calculated from the average tumor volume of each group by the following expression, and the drug efficacy was evaluated. T/C (%)=(average tumor volume of drug-administered group)/(average tumor volume of solvent-administered group)×100%

T1 sequence (Q02127 31-395): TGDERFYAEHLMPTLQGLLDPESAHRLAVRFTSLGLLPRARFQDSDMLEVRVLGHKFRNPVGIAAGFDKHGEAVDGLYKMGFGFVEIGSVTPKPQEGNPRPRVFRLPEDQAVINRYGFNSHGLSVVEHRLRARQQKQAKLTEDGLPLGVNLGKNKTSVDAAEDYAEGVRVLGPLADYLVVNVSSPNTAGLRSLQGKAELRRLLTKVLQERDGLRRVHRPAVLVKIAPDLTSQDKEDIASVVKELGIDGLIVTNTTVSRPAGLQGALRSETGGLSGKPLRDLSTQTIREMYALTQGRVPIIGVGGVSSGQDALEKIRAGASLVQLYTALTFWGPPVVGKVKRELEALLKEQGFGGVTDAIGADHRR

As for `O=C(O)c1nc(C2CC2)cnc1Nc1cccc(C2CCOCC2)c1OCC(F)(F)F` [Example 4, 6-cyclopropyl-3-((3-(tetrahydro-2H-pyran-4-yl)-2-(2,2,2-trifluoroethoxy)phenyl)amino)pyrazine-2-carboxylic acid], on recombinant human DHODH, the IC50 is less than 10 nM. Also, the GI50 in experiment [1] is less than 100 nM. In experiment [2], the “tumor growth inhibition rate (T/C)” value is reported as “excellent tumor growth inhibition rate”.
`O=C(O)c1nc(C2CC2)cnc1Nc1cccc(C2=CCOCC2)c1OCC(F)(F)F` [Example 2, 6-cyclopropyl-3-((3-(3,6-dihydro-2H-pyran-4-yl)-2-(2,2,2-trifluoroethoxy)phenyl)amino)pyrazine-2-carboxylic acid]: the IC50 on recombinant human DHODH was less than 10 nM. Moreover, the GI50 in experiment [1] is less than 100 nM. Besides, the “tumor growth inhibition rate (T/C)” value in experiment [2] is “excellent tumor growth inhibition rate”.
The matching figures for `CCCc1c(Nc2ncc(C3CC3)nc2C(=O)O)cccc1C1CCOCC1` [Example 13, 6-cyclopropyl-3-((2-propyl-3-(tetrahydro-2H-pyran-4-yl)phenyl)amino)pyrazine-2-carboxylic acid]: 10 to 100 nM, less than 100 nM and “excellent tumor growth inhibition rate”.
The matching figures for `C[C@H](Oc1c(Nc2ncc(C3CC3)nc2C(=O)O)cccc1C1CCOCC1)C(F)(F)F` [Example 10, (S)-6-cyclopropyl-3-((3-(tetrahydro-2H-pyran-4-yl)-2-((1,1,1-trifluoropropan-2-yl)oxy)phenyl)amino)pyrazine-2-carboxylic acid]: less than 10 nM, less than 100 nM and “excellent tumor growth inhibition rate”.
Turning to `C[C@H](Oc1c(Nc2ncc(C3CC3)nc2C(=O)O)cccc1C1=CCOCC1)C(F)(F)F` [Example 8, (S)-6-cyclopropyl-3-((3-(3,6-dihydro-2H-pyran-4-yl)-2-((1,1,1-trifluoropropan-2-yl)oxy)phenyl)amino)pyrazine-2-carboxylic acid], the IC50 on recombinant human DHODH was less than 10 nM. For the same molecule, in experiment [1], the GI50 was less than 100 nM. In experiment [2], the “tumor growth inhibition rate (T/C)” value is listed as “excellent tumor growth inhibition rate”.
In the case of `O=C(O)c1nc(C2CC2)cnc1Nc1cccc(C2=CCOCC2)c1OC(F)F` [Example 14, 6-cyclopropyl-3-((2-(difluoromethoxy)-3-(3,6-dihydro-2H-pyran-4-yl)phenyl)amino)pyrazine-2-carboxylic acid], the IC50 on recombinant human DHODH was less than 10 nM. Besides, the GI50 in experiment [1] lay within 100 to 1000 nM.
Turning to `CCOc1c(Nc2ncc(C3CC3)nc2C(=O)O)cccc1C1=CCOCC1` [Example 19-21], the half-inhibitory concentration (IC50) at recombinant human DHODH was in the range of 10 to 100 nM. Also, the GI50 in experiment [1] lay within 100 to 1000 nM.
On to `O=C(O)c1nc(C2CC2)cnc1Nc1cccc(C2CCOCC2)c1CC(F)(F)F` [Example 19-18], for which the IC50 on recombinant human DHODH lay within 10 to 100 nM. In experiment [1], the GI50 is 100 to 1000 nM.
The matching figures for `O=C(O)c1nc(C2CC2)cnc1Nc1cccc(C2=CCOCC2)c1F` [Example 19-22]: 10 to 100 nM and not below 1000 nM.

For the origin of these results see patent publication US12421217B2, “Pyrazine derivative or salt thereof, and use of same” (FUJIFILM Corporation, priority 2019, dated 2025).
